In patent US20090010873A1, “Methods of Cell Therapy, Neurogenesis and Oligodendrogenesis” (YEDA RESEARCH AND DEVELOPMENT CO. LTD., priority 2004, published 2009):

What was measured:
[1] = test system: neural progenitor cells (NPCs); test: NPCs co-cultured with microglia pre-activated by aggregated Aβ and cytokines (β-III-tubulin); type: cell-based, mouse; settings: 10 days co-culture; Aβ 5 μM, IFN-γ 10 ng/ml
Procedure: (xlvi) Reagents. Recombinant mouse IFN-γ and IL-4 (both containing endotoxin at a concentration below 0.1 ng/μg cytokine) were obtained from R&D Systems (Minneapolis, Minn.). β-amyloid peptides [amyloid protein fragment 1-40 and 1-42 (Aβ1-40/1-42)] were purchased from Sigma-Aldrich, St. Louis, Mo. The Aβ peptides were dissolved in endotoxin-free water, and Aβ aggregates were formed by incubation of Aβ, as described (Ishii et al., 2000).
(li) Neural progenitor cell culture. Coronal sections (2 mm thick) of tissue containing the subventricular zone of the lateral ventricle were obtained from the brains of adult C57B1/6J mice. The tissue was minced and then incubated for digestion at 37° C., 5% CO2 for 45 min in Earle's balanced salt solution containing 0.94 mg/ml papain (Worthington, Lakewood, N.J.) and 0.18 mg/ml of L-cysteine and EDTA. After centrifugation at 110×g for 15 min at room temperature, the tissue was mechanically dissociated by pipette trituration. Cells obtained from single-cell suspensions were plated (3500 cells/cm^2) in 75-cm^2 Falcon tissue-culture flasks (BD Biosciences, San Diego, Calif.), in NPC-culturing medium [Dulbecco's modified Eagles's medium (DMEM)/F12 medium (Gibco/Invitrogen, Carlsbad, Calif.) containing 2 mM L-glutamine, 0.6% glucose, 9.6 μg/ml putrescine, 6.3 ng/ml progesterone, 5.2 ng/ml sodium selenite, 0.02 mg/ml insulin, 0.1 mg/ml transferrin, 2 μg/ml heparin (all from Sigma-Aldrich, Rehovot, Israel), fibroblast growth factor-2 (human recombinant, 20 ng/ml), and epidermal growth factor (human recombinant, 20 ng/ml; both from Peprotech, Rocky Hill, N.J.)]. Spheres were passaged every 4-6 days and replated as single cells. Green fluorescent protein (GFP)-expressing NPCs were obtained as previously described (Pluchino et al., 2003).
(lii) Primary microglial culture. Brains from neonatal (P0-P1) C57B1/6J mice were stripped of their meninges and minced with scissors under a dissecting microscope (Zeiss, Stemi DV4, Germany) in Leibovitz-15 medium (Biological Industries, Kibbutz Beit Ha-Emek, Israel). […]

microglia = test: TNF-α and IGF-I expression in treated microglia (RT-PCR, Q-PCR, immunocytochemistry); type: cell-based, mouse
Procedure: (v) RNA purification, cDNA synthesis, and reverse-transcription PCR analysis. Cells were lysed with TRI reagent (MRC, Cincinnati, Ohio), and total cellular RNA was purified from lysates using the RNeasy kit (Qiagen, Hilden, Germany) according to the manufacturer's instructions. Residual genomic DNA was removed during the purification process by incubation with RNase-free DNase (Qiagen). RNA was stored in RNase-free water (Qiagen) at −80° C. RNA (1 μg) was converted to cDNA using SuperScript II ([…], Madison, Wis.), as recommended by the manufacturer. The cDNA mixture was diluted 1:5 with PCR-grade water.
We assayed the expression of specific mRNAs using semi-quantitative reverse transcription PCR(RT-PCR) with selected gene-specific primer pairs, using OLIGO v6.4 (Molecular Biology Insights, Cascade, Colo.).
The RT-PCR reactions were carried out using 1 μg of cDNA, […] of each primer, and ReadyMix PCR Master Mix (ABgene, Epsom, UK) in 30-μl reactions. PCR reactions were carried out in an Eppendorf PCR system with cycles (usually 25-30) of 95° C. for 30 s, 60° C. for 1 min, 72° C. for 1 min, and 72° C. for 5 min, and then kept at 4° C. As an internal standard for the amount of cDNA synthesized, we used β-actin mRNA. PCR products were subjected to agarose gel analysis and visualized by ethidium bromide staining. Signals were quantified using a Gel-Pro analyzer 3.1 (Media Cybernetics).
(xxiv) Real-time quantitative PCR analysis. Total cellular RNA purification and cDNA synthesis was performed as described in section (v) of Example 1 above. We assayed the expression of specific mRNAs using real-time quantitative PCR (Q-PCR) with selected gene-specific primer pairs. Q-PCR reactions were performed with a high-speed thermal cycler (LightCycler; Roche Diagnostics), and the product was detected by FastStart Master SYBR Green I (Roche Molecular Biochemicals) according to the manufacturer's instructions. The amplification cycle was 95° C. for 10 s, 60° C. for 5 s, and 72° C. for 10 s. The primers used were: […]

IFN-γ
GFP^+/βIIIT^+ cells (neurogenesis) with microglia activated by the agent [1]: dramatic | expression of IGF-I in microglia (Q-PCR) (microglia; 10 ng/ml, 24 h): no effect | expression of IGF-I in microglia (Q-PCR) (microglia; 100 ng/ml, 24 h): completely arrested | IGF-I production/expression by microglia (microglia; RT-PCR time course and immunocytochemistry, IL-4 10 ng/ml, IFN-γ 20 ng/ml, LPS 100 ng/ml): down-regulation of IGF-I | TNF-α production by microglia (microglia; RT-PCR time course, IFN-γ 20 ng/ml): transient increase | TNF-α production in microglia (Q-PCR) (microglia; high-dose IFN-γ (100 ng/ml), 24 h): induced
